Source: patent US20090274655A1, “2-CARBOXY THIOPHENE DERIVATIVES AS ANTI VIRAL AGENTS” (priority 2006, published 2009)

Columns and labels:
[1] = system: sub-genomic HCV NS3-NS5B replicon of genotype 1a (subline 1.19) in Huh-7 cells; assay: 1a luciferase replicon assay (replicon luciferase cell based assay); set-up: species or system HCV genotype 1a; conditions: Hepatitis C virus, genotype 1a replicon, firefly luciferase reporter, 48 hours
Experimental: (§1) Replicon Luciferase Cell Based Assay
(§2) A 40 mM stock solution in DMSO of each test compound was further diluted into 50 μL of DMSO in the first row of a 96 well, V-bottom microplate, to give 100 times the top concentration of the required dilution series. Aliquots of 25 μL of DMSO were added to each well of the remaining rows, and doubling dilutions of compound were prepared by the serial transfer of 25 μL volumes from the first row onwards. A PlateMate™ robot was used to transfer 1 μL volumes from each dilution well into duplicate wells of a clear bottom, black walled, 96 well assay plate (COSTAR #3603). Control wells received 1 μL of DMSO alone. […]
(§3) One tablet of Resazurin (Fisher #R/0040/79) was dissolved in 50 mL of phosphate buffered saline and 100 μL of solution added to all wells. The plate was re-incubated at 37° C. for a further 2-4 hours, wrapped in aluminium foil, before reading in a FLUOStar Optima at 595 nm. […] The plate was then read for luminescence on a TopCount® NXT™.
(§4) Potency: The luminescence values from all compound-free wells containing cells were averaged to obtain a positive control value. The mean luminescence value from the compound-free wells that had received no cells was used to provide the negative (background) control value. […] The quantifiable and specific reduction of luciferase signal in the presence of a drug is a direct measure of replicon inhibition. […]

[2] = system: sub-genomic HCV NS3-NS5B replicon of genotype 1b (ET subline) in Huh-7 cells; assay: 1b luciferase replicon assay (replicon luciferase cell based assay); set-up: species or system HCV genotype 1b; conditions: Hepatitis C virus, Huh-7, 48 h, read-out: IC50 in the 1b luciferase replicon assay
Experimental: as §1, §2, §3, §4

CC(C)N(c1cc(-c2ccc(NC(=O)c3cscn3)cc2)sc1C(=O)O)C(=O)[C@H]1CC[C@H](C)CC1 [Example 1, 3-[[(trans-4-Methylcyclohexyl)carbonyl](1-methylethyl)amino]-5-{4-[(1,3-thiazol-4-ylcarbonyl)amino]phenyl}-2-thiophenecarboxylic acid]
IC50 [1]: < 100 nM | IC50 [2]: < 100 nM
